Source: patent US8216610B2, “Oral paracetamol formulations” (Imaginot Pty Ltd., priority 2004, dated 2012)
Values after ≈ are worked out from the molar mass of the structure shown. Structures can show the parent of a compound that is named as a salt.

Legend:
Solubility in water = type: physicochemical; settings: on a weight for weight basis; doses of the combination tablet
[1] = cited from earlier work
[2] = cited from earlier work; remark: listed apart in the source

COc1cccc(C2(O)CCCCC2CN(C)C)c1 (centres unmarked) [tramadol hydrochloride]
volume needed for total dissolution of the dose (Solubility in water): around 1 mL | dependence of solubility on pH [1]: reduced as the pH increases | solubility in water [1]: around 30 mg/mL

CC(=O)Nc1ccc(O)cc1 [paracetamol, N-acetyl-p-aminophenol]
volume needed for total dissolution of the dose (Solubility in water): around 27 mL | dependence of solubility on pH [1]: independent of the pH | solubility in water [1]: ~14 mg/mL (≈ 92.6 mM) | paracetamol concentration effective for antipyresis ([2]; Rumack et al 1978): 10 to 20 µg/mL | range of paracetamol plasma concentrations for effective analgesia ([2]; humans, Prescott 1974): 5 to 20 µg/mL
